Source: patent publication US12122802B2, “D-allose crystal and production method thereof” (MATSUTANI CHEMICAL INDUSTRY CO., LTD., priority 2019, dated 2024)

Columns and labels:
[1] = water content in crystals from weight loss on drying under reduced pressure at 70° C. for 18 hours; assay type: physicochemical; conditions: hydrous D-allose crystals (purity 99.9%, water content 17.7%) dried under the named drying conditions
Experimental: (§1) In order to measure the water content in the crystals obtained by each of the drying methods, drying under reduced pressure under conditions at 70° C. for 18 hours was performed to calculate the water content in the crystals from the weight loss through the drying under reduced pressure. The repose angle was measured by the method described above to determine the degree of fluidity. The yield rate was calculated by the following expression. Yield rate (%)=(D/C)×100 [Expression 4]

[2] = repose angle measured by powder tester PT-E (fluidity of anhydrous D-allose crystals); assay type: physicochemical; conditions: for Repose angle (degrees): drying tests of Table 6, crystals after the named drying conditions; for Degree of fluidity: drying tests of Table 6, evaluated from repose angle according to Table 4
Experimental: The fluidity of the anhydrous D-allose crystals obtained by drying the hydrous crystals obtained in each of Tests Nos. 1 to 12 with an evaporator (30° C., 20 hPa (abs), about 2 hours) as described above was evaluated by the repose angle measured by a powder tester PT-E (manufactured by Hosokawa Micron Corporation). Specifically, a sample was dropped and deposited on a disk, and the inclination angle was measured from three directions to obtain an average value. From the average value, the degree of fluidity was evaluated according to Table 1 in the Japanese Pharmacopoeia, 17th edition, Reference Information G2 physical property-related “Powder Fluidity” (same as the so-called Carr's fluidity index table, shown as Table 4).
as §1

[3] = in vivo; cited from earlier work
cancer cells = conditions: cited from earlier work
active oxygen in cells = conditions: cited from earlier work

Row | Water content (%) after drying [1] | Repose angle (degrees) [2] | Degree of fluidity [2] | SMILES | effect on increase in blood pressure [3] | effect on growth of cancer cells (cancer cells) | effect on generation of active oxygen in cells (active oxygen in cells)
1 | 0.052% | 45.7 degrees | Passable (41~45) | O=C[C@H](O)[C@H](O)[C@H](O)[C@H](O)CO [Ultra-low humidity drying (20 to 24° C.), D-allose] |  |  | 
2 | 0.099% | 42 degrees | Passable (41~45) | O=C[C@H](O)[C@H](O)[C@H](O)[C@H](O)CO [Conductive heat transfer drying at 50° C.] [D-allose] |  |  | 
3 |  |  |  | O=C[C@H](O)[C@H](O)[C@H](O)[C@H](O)CO [D-allose] | effect for suppressing an increase in blood pressure | effect for suppressing growth of cancer cells | effect for suppressing generation of active oxygen in cells
